{"source": "patent US20060217305A1", "about": "“Induction of tumor cell senescence by retinoid receptor agonists and antagonists” (Ordway Research Institute, Inc., priority 2005, published 2006)", "assay_type_in_all_cases": "cell-based, human", "key": {"MCF-7 cells [1]": {"system": "MCF-7 cells", "experiment": "senescence-associated β-galactosidase (SA-β-gal) positive cells", "details": "7-day treatment (FIG. 3 legend: 8 days); concentrations as in FIG. 2", "excerpt": "The bars represent percentages of SA-β-gal+ cells after 8 days of treatment with the indicated compounds (in triplicate). The compounds were used at the same concentrations as in FIG. 2.\n(§1) To test this, we have analyzed the effects of different compounds on the growth of MCF-7 cells, as measured by the cell number after 7 days exposure to the compounds (FIG. 2) and on the fraction of cells expressing the senescence-associated β-galactosidase activity (SA-β-gal), a marker of senescence, after 7-day treatment with the compounds (FIG. 3)."}, "[2]": {"system": "DR5 RARE-containing promoter in MCF-7 cells", "experiment": "DR5-luciferase transient transfection assay (RARE-dependent transcription)", "details": "100 nM, 24 hrs", "protocol": "The assays were carried out in triplicate. RA is all-trans retinoic acid. LGD1550 is a pan-RAR agonist. LG100815 is a pan-RAR antagonist.\nTo confirm the ability of LG100815 to antagonize RARE-dependent induction of transcription analysis of firefly luciferase expression from a RARE-containing artificial promoter DR5 (Stratagene, catalog number 240119) was performed. Cells were plated to the density of 3×10^5 in P60 24 hrs before transient transfection. DR5 reporter plasmid (4 μg) was mixed with the SV40-driven-Renilla luciferase control plasmid (0.04 μg) and transfected using Lipofectamine Plus (Life Technologies/Invitrogen, Carlsbad, Calif.) as described by the manufacturer. 3 hrs after transfection, cells were rinsed three times with PBS, trypsinized and replated in a 12-well plate to the density of 5×10^4 cells per well. Retinoid agonists and antagonists were added 48 hrs later, and the luciferase assay was performed after another 24 hrs."}, "MCF-7 cells [3]": {"system": "MCF-7 cells", "experiment": "MCF-7 cell growth, cell number after 7 days", "details": "100 nM RA, LGD1550, LGD1268, 10 μM LG100815, LG101208", "protocol": "The bars represent cell number after 7 days of culture with the addition of DMSO (control), 100 nM RA, 100 nM RAR agonist LGD1550, 100 nM RXR agonist LGD1268, 10 μM RAR antagonist LG100815, and 10 μM RXR antagonist LG101208. Experiments were done in triplicate, and the results are expressed relative to the average of the control.\nas §1"}, "[4]": {"system": "retinoid-inducible genes EPLIN, UBD, IGFBP3, TGFB1 and TRIM31 in MCF-7 cells (subline MCF-7 3′SS6)", "experiment": "real-time RT-PCR (QPCR) of retinoid-inducible gene expression, 2 days treatment", "details": "for Fold induction EPLIN / Fold induction IGFBP3 / Fold induction TGFBI / Fold induction TRIM31 / Fold induction UBD: 2 days, MCF-7", "excerpt": "The following compounds were obtained from Ligand Pharmaceuticals (San Diego, Calif.). LGD1550 is a pan-RAR agonist. LGD1268 is a pan-RXR agonist. LG100815 is a pan-RAR antagonist. LG101208 is a pan-RXR antagonist. The LG100815 compound is a specific RAR antagonist that binds to RAR, but fails to activate its Retinoic Acid Responsive Element (RARE)-dependent transcription transactivation function (see Lee et al, Mol. Cell Biol. 19: 1973-1980 (1999)). Also used was all-trans retinoic acid (RA), the most commonly used RAR agonist. To determine how these compounds affect the expression of retinoid-inducible growth inhibitory genes EPLIN, UBD, IGFBP3 and TGFB1, as well as TRIM31 gene that contains a putative RARE element in its promoter, MCF-7 cells (subline MCF-7 3′SS6) were treated with individual compounds or their combinations for 2 days, and RNA was extracted by standard procedures. In the initial assays, gene expression was analyzed by semi-quantitative reverse transcription-PCR (RT-PCR), as described in Dokmanovic et al., Cancer Biology & Therapy 1:24-27 (2002). In subsequent assays, the initial results were confirmed, expanded and quantitated by real-time RT-PCR (QPCR), using Applied BioSystems 7900HT real-time PCR instrument. β-actin was used as a normalization standard.\ncDNA was prepared by reverse transcription with random primer using 4 μg total RNA. 5 μl SYBR Green PCR Master Mix (Applied Biosystems) was mixed with […] cDNA and 0.8 pmol of gene-specific primers and brought up to 10 μl with ultra pure H2O in 384-well optical plates. For amplification, reaction mixtures were heated for 2 min at 50° C. and 10 min at 95° C., followed by 40 cycles of two-step PCR consisting of 15 sec at 95° C. and 1 min at 60° C., to construct dissociation curves and verify that single PCR products were obtained. PCR products were also analyzed by gel electrophoresis to confirm that a single product of the expected size was amplified. […] The comparative CT method for relative quantitation of gene expression described by Applied Biosystems was used to determine expression levels for target genes. Experiments were carried out in triplicate for each data point. Sequence Detection Systems software version 2.1 (Applied Biosystems) and Microsoft Excel were used for data analysis."}}}
{"smiles": "CC(/C=C/C=C(\\C)c1cc(C(C)(C)C)cc(C(C)(C)C)c1)=C\\C(=O)O", "note": "[LGD1550]", "values": [{"measurement": "induction of senescent phenotype (SA-β-gal+ cells)", "setting": "MCF-7 cells [1]", "result": "induced SA-β-gal to an extent similar to that of RA"}, {"measurement": "induction of luciferase expression from DR5 RARE-containing promoter", "setting": "[2]", "result": "approximately 50 fold"}, {"measurement": "effect on MCF-7 cell growth (cell number)", "setting": "MCF-7 cells [3]", "result": "inhibited the cell growth"}, {"measurement": "ratio of the fold-induction of TGFB1 relative to TRIM31", "setting": "[4]; 100 nM", "result": 0.12}, {"measurement": "Fold induction EPLIN", "setting": "[4]; 100 nM", "result": "4.2 ± 0.8", "unit": "fold"}, {"measurement": "Fold induction IGFBP3", "setting": "[4]; 100 nM", "result": "4.2 ± 2.0", "unit": "fold"}, {"measurement": "Fold induction TGFBI", "setting": "[4]; 100 nM", "result": "5.1 ± 0.6", "unit": "fold"}, {"measurement": "Fold induction TRIM31", "setting": "[4]; 100 nM", "result": "42.7 ± 1.3", "unit": "fold"}, {"measurement": "Fold induction UBD", "setting": "[4]; 100 nM", "result": "9.5 ± 0.2", "unit": "fold"}, {"measurement": "ratio of the fold-induction of TGFB1 relative to TRIM31", "setting": "[4]; 1 μM", "result": 0.12}, {"measurement": "Fold induction EPLIN", "setting": "[4]; 1 μM", "result": "3.2 ± 0.3", "unit": "fold"}, {"measurement": "Fold induction IGFBP3", "setting": "[4]; 1 μM", "result": "3.7 ± 0.7", "unit": "fold"}, {"measurement": "Fold induction TGFBI", "setting": "[4]; 1 μM", "result": "3.5 ± 0.4", "unit": "fold"}, {"measurement": "Fold induction TRIM31", "setting": "[4]; 1 μM", "result": "30.3 ± 0.7", "unit": "fold"}, {"measurement": "Fold induction UBD", "setting": "[4]; 1 μM", "result": "7.7 ± 1.1", "unit": "fold"}, {"measurement": "ratio of the fold-induction of TGFB1 relative to TRIM31", "setting": "[4]; 10 μM", "result": 0.12}, {"measurement": "Fold induction EPLIN", "setting": "[4]; 10 μM", "result": "4.9 ± 2.5", "unit": "fold"}, {"measurement": "Fold induction IGFBP3", "setting": "[4]; 10 μM", "result": "2.8 ± 1.6", "unit": "fold"}, {"measurement": "Fold induction TGFBI", "setting": "[4]; 10 μM", "result": "5.6 ± 0.1", "unit": "fold"}, {"measurement": "Fold induction TRIM31", "setting": "[4]; 10 μM", "result": "45.0 ± 1.4", "unit": "fold"}, {"measurement": "Fold induction UBD", "setting": "[4]; 10 μM", "result": "7.3 ± 1.1", "unit": "fold"}, {"measurement": "effect on expression of the five genes (IGFBP3, EPLIN, UBD, TGFB1, TRIM31)", "setting": "[4]; summary of Table 2, MCF-7", "result": "induced all five genes to approximately the same extent as RA"}]}
